Experimental data taken from ChEMBL document CHEMBL1122597, “Palladium (II)-catalyzed olefin-coupling reactions of kainic acid: effects of substitution on the isopropenyl group on receptor binding” (J Med Chem, 1984).

organism: Rattus norvegicus; assay: Concentration that produces 50% displacement of [3H]-kainic acid from nerve cell membrane receptor sites; format: functional

SMILES	IC50 [nM]
C/C(=C\c1cccc([N+](=O)[O-])c1)C1CN[C@H](C(=O)O)C1CC(=O)O (some centres undefined)	79.4
C/C(=C/c1cccc([N+](=O)[O-])c1)C1CN[C@H](C(=O)O)C1CC(=O)O (some centres undefined)	417
CC(C)[C@H]1CN[C@H](C(=O)O)[C@H]1CC(=O)O [DIHYDROKAINATE]	646
C=C(C)[C@H]1CN[C@H](C(=O)O)[C@H]1CC(=O)O [KAINIC ACID]	17.8
